Test results taken from patent US6716851B2, “Substituted 2-aryl-4-arylaminopyrimidines and analogs as activators or caspases and inducers of apoptosis and the use thereof” (Cytovia, Inc., priority 2000, dated 2004).

Legend:
ZR-75-1 cells = test: Caspase cascade activation (N-(Ac-DEVD)-N'-ethoxycarbonyl-R110 fluorogenic substrate) in ZR-75-1 cells; type: cell-based, Human; details: ZR-75-1, 48 h incubation; for EC50: Homo sapiens, caspase activation potency; for ZR Ratio 48 hr: caspase activity: ratio of net RFU of test compound to control
How it was run: (§1)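 EC50 comes from sigmoidal fitting of the net RFU ratio over DMSO control, read at ex 485/em 530 nm 3 h after adding 14 μM Ac-DEVD-R110 in lysolecithin/DTT/PIPES pH 7.2 buffer. Compound (0.016-10 μM final) was applied to cells for 48 h at 37 °C beforehand.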

T-47D cells = test: Caspase cascade activation (N-(Ac-DEVD)-N'-ethoxycarbonyl-R110 fluorogenic substrate) in T-47D cells; type: cell-based, Human; details: 48 h incubation; for EC50: Homo sapiens, T47D, caspase activation potency, read-out: T47 EC50; for T47 Ratio 48 hr: caspase activity: ratio of net RFU of test compound to control
How it was run: as §1

Row | Structure (SMILES) | EC50 (ZR-75-1 cells) [nM] | ZR Ratio 48 hr (ZR-75-1 cells) | EC50 (T-47D cells) [nM] | T47 Ratio 48 hr (T-47D cells)
1 | COc1cc(Nc2cc(C(F)(F)F)nc(-c3ccccn3)n2)c(OC)cc1Cl.Cl [Example 150, 4-(4-Chloro-2,5-dimethoxyanilino)-2-(2-pyridinyl)-6-(trifluoromethyl)pyrimidine hydrochloride] | 133 | 9.7 | 135 | 11.0
2 | COc1cc(Nc2cc(C(F)(F)F)nc(-c3cnccn3)n2)c(OC)cc1Cl.Cl [Example 151, 4-(4-Chloro-2,5-dimethoxyanilino)-(2-pyrazinyl)-6-(trifluoromethyl)pyrimidine hydrochloride] | 276 | 8.6 | 388 | 12.0
3 | COc1cc(C)c(Nc2cc(C(F)(F)F)nc(-c3ccccn3)n2)cc1OC.Cl [Example 152, 4-(4,5-Dimethoxy-2-methylanilino)-2-(2-pyridinyl)-6-(trifluoromethyl)pyrimidine hydrochloride] | 212 | 8.6 | 35 | 14.6
4 | COc1cc(C)c(Nc2cc(C(F)(F)F)nc(-c3cnccn3)n2)cc1OC.Cl [Example 153, 4-(4,5-Dimethoxy-2-methylanilino)-2-(2-pyrazinyl)-6-(trifluoromethyl)pyrimidine hydrochloride] | 146 | 9.3 | 43 | 15.7
5 | COc1cc(C)c(Nc2cc(C(F)(F)F)nc(-c3ccncc3)n2)cc1OC.Cl [Example 154, 4-(4,5-Dimethoxy-2-methylanilino)-2-(4-pyridinyl)-6-(trifluoromethyl)pyrimidine hydrochloride] | 14 | 7.9 | 22 | 6.1
6 | Cl.FC(F)(F)Oc1cccc(Nc2cc(C(F)(F)F)nc(-c3ccccn3)n2)c1 [Example 156, 4-(3-Trifluoromethoxyanilino)-2-(2-pyridinyl)-6-(trifluoromethyl)pyrimidine hydrochloride] | 2260 | 4.1 | > 5000 | 1.7
7 | COc1cc(C)c(Nc2cc(C(F)(F)F)nc(-c3cccnc3)n2)cc1OC [Example 157, 4-(4,5-Dimethoxy-2-methylanilino)-2-(3-pyridinyl)-6-(trifluoromethyl)pyrimidine] | 197 | 6.4 | 43 | 6.6
8 | COc1cc(Nc2cc(C(F)(F)F)nc(-c3ccncc3)n2)c(OC)cc1Cl.Cl [Example 158, 4-(4-Chloro-2,5-dimethoxyanilino)-2-(4-pyridinyl)-6-(trifluoromethyl)pyrimidine hydrochloride] | 133 | 6.0 | 509 | 9.5
9 | COc1cccc(N(C)c2cc(C(F)(F)F)nc(-c3ccccn3)n2)c1 [Example 160, 4-(N-Methyl-3-methoxyanilino)-2-(2-pyridinyl)-6-trifluoromethyl-pyrimidine] | > 5000 | 1.4 | > 5000 | 1.0
10 | COc1cc(Nc2cc(C(F)(F)F)nc(-c3ccncc3)n2)cc(OC)c1 [Example 161, 4-(3,5-Dimethoxyanilino)-2-(4-pyridinyl)-6-trifluoromethyl-pyrimidine] | 86 | 5.1 | 79 | 10.7
11 | COc1ccc(Cl)cc1Nc1cc(C(F)(F)F)nc(-c2ccncc2)n1 [Example 162, 4-(5-Chloro-2-methoxyanilino)-2-(4-pyridinyl)-6-trifluoromethyl-pyrimidine] | 360 | 7.3 | 272 | 11.3
12 | COc1cc(Nc2cc(C(F)(F)F)nc(-c3cc(Cl)nc(Cl)c3)n2)cc(OC)c1 [Example 163, 4-(3,5-Dimethoxyanilino)-2-(2,6-dichloro-4-pyridinyl)-6-trifluoromethylpyrimidine] | > 5000 | 1.6 | > 5000 | 1.1
13 | COc1ccc(Cl)c(Nc2cc(C(F)(F)F)nc(-c3cc(Cl)nc(Cl)c3)n2)c1 [Example 164, 4-(2-Chloro-5-methoxyanilino)-2-(2,6-dichloro-4-pyridinyl)-6-trifluoromethyl-pyrimidine] | > 5000 | 1.3 | > 5000 | 1.3
14 | FC(F)(F)c1cc(Nc2ccc3[nH]ccc3c2)nc(-c2cccnc2)n1 [Example 166, 4-(1 H-5-Indolyl-amino)-2-(3-pyridinyl)-6-trifluoromethyl-pyrimidine] | 532 | 3.3 | 870 | 8.0
15 | COc1ccc(Nc2cc(C)nc(-c3ccccn3)n2)cc1OC [Example 176, 4-(3,4-Dimethoxyanilino)-6-methyl-2-(2-pyridinyl)pyrimidine] | > 5000 | 1.9 | 149 | 4.5
16 | COc1ccc(Cl)cc1Nc1cc(C(F)(F)F)nc(-c2cccnc2)n1 [Example 180, 4-(5-Chloro-2-methoxyanilino)-2-(3-pyridinyl)-6-trifluoromethylpyrimidine] | 698 | 8.7 | 637 | 15.1
17 | COc1cc(Nc2cc(C(F)(F)F)nc(-c3cnccn3)n2)cc(OC)c1 [Example 183, 4-(3,5-Dimethoxyanilino)-2-(2-pyrazinyl)-6-trifluoromethylpyrimidine] | 75 | 11.5 | 82 | 17.3
18 | Cc1ccc(O)cc1Nc1cc(C(F)(F)F)nc(-c2ccccn2)n1 [Example 188, 4-(5-Hydroxy-2-methylanilino)-2-(2-pyridinyl)-6-trifluoromethylpyrimidine] | 271 | 9.3 | 429 | 3.6
19 | COc1ccc(C)cc1Nc1cc(C(F)(F)F)nc(-c2ccccn2)n1 [Example 190, 4-(2-Methoxy-5-methylanilino)-2-(2-pyridinyl)-6-trifluoromethylpyrimidine] | 32 | 16.7 | 29 | 19.3
20 | Oc1ccc(Cl)cc1Nc1cc(C(F)(F)F)nc(-c2cnccn2)n1 [Example 198, 4-(5-Chloro-2-hydroxyanilino)-2-(2-pyrazinyl)-6-trifluoromethylpyrimidine] | > 5000 | 1.8 | 419 | 3.3
21 | COc1ccc(OC)c(CCNc2cc(C(F)(F)F)nc(-c3cccnc3)n2)c1 [Example 200, 4-(2,5-Dimethoxyphenylethylamino)-2-(3-pyridinyl)-6-trifluoromethylpyrimidine] | > 5000 | 1.4 | > 5000 | 1.2
22 | Cc1cc(Nc2cc(C(F)(F)F)nc(-c3cccnc3)n2)c(C)cc1O [Example 201, 4-(2,5-Dimethyl-4-hydroxyanilino)-2-(3-pyridinyl)-6-trifluoromethylpyrimidine] | 173 | 4.8 | 333 | 15.7
23 | COc1cc(C#N)c(Nc2cc(C(F)(F)F)nc(-c3cccnc3)n2)cc1OC [Example 203, 4-(2-Cyano-4,5-dimethoxyanilino)-2-(3-pyridinyl)-6-trifluoromethylpyrimidine] | 2630 | 3.4 | 843 | 10.7
24 | COc1ccc(Nc2cc(C(F)(F)F)nc(-c3cccnc3)n2)c(OC)n1 [Example 206, 4-(2,6-Dimethoxypyridin-3-ylamino)-2-(3-pyridinyl)-6-trifluoromethylpyrimidine] | 583 | 2.9 | 802 | 6.9
25 | FC(F)(F)c1cc(Nc2cccc3[nH]ccc23)nc(-c2ccccn2)n1 [Example 212, 4-(Indol-4-ylamino)-2-(2-pyridinyl)-6-trifluoromethylpyrimidine] | 2780 | 6.1 | 3110 | 5.8
26 | Cc1cc2cc(Nc3cc(C(F)(F)F)nc(-c4cccnc4)n3)ccc2[nH]1 [Example 213, 4-(2-Methyl-indol-5-ylamino)-2-(3-pyridinyl)-6-trifluoromethylpyrimidine] | 1770 | 9.9 | 2680 | 14.1
